Source: EP4786487A1, “PEPTIDE” (Peptidream Inc, priority 2023, dated 2025)
Starred links: 1 amine or outer side, 2 acyl side, 3 side chain; linkers in the order of their positions; H or OH if unused. Positions of bridges follow the written chain, without caps; N, C: chain ends. Non-standard residues stand in square brackets, D forms with d. Residues, ends and D or L forms follow the SMILES beside them. Phe(3-OCH2COOH) = N[C@@H](Cc1cccc(OCC(=O)O)c1)C(=O)O; Phe(4-COOH) = N[C@@H](Cc1ccc(C(=O)O)cc1)C(=O)O; Gly(N(CH2)3COOH) = O=C(O)CCCNCC(=O)O; X1 = CCCCCCC[C@H](N[*:1])C(=O)[*:2]; NMeF = CN[C@@H](Cc1ccccc1)C(=O)O; NMeA = CN[C@@H](C)C(=O)O

Experiments:
[1] = molecular target: T1, GDF-11 (Homo sapiens, UniProt O95390); assay: Reporter gene assay for myostatin signaling in HepG2 cell line, Evaluation Procedure (1), GDF-11 inhibition; assay type: cell-based; settings: Method A: GDF-11 10 ng/mL; read-out: IC50 (Luciferase) GDF-11 HepG2
T1 construct: purchased R&D systems 1958-GD-G8/CF
T1 sequence (O95390 299-407): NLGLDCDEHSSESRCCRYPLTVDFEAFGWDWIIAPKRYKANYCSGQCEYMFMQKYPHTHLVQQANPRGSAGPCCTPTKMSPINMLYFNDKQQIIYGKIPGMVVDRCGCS
Method in brief: (§1)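 IC50 derived from One-Glo luciferase luminescence after 20–24 h at 37 °C. Peptides titrated 4-fold at 0.006–100 nmol/L against myostatin or 0.12–2000 nmol/L against GDF-11 in HepG2 cells carrying a transfected CAGA12-luciferase reporter, kept in 0.1% BSA EMEM.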

[2] = test system: Myostatin; assay: Reporter gene assay for myostatin signaling in HepG2 cell line, Evaluation Procedure (1), myostatin inhibition; assay type: cell-based; settings: Method A; GDF-11 IC50 versus Myostatin IC50
Method in brief: as §1

[3] = molecular target: T2, Myostatin (Homo sapiens, UniProt O14793); assay: as above; assay type: cell-based; settings: Method A: Myostatin 10 ng/mL; read-out: IC50 (Luciferase) Myostatin HepG2
T2 construct: active myostatin (also called mature myostatin) is a homodimer consisting of two C-terminal growth factor domains; purchased R&D systems 788-G8/CF
T2 sequence (O14793 267-375): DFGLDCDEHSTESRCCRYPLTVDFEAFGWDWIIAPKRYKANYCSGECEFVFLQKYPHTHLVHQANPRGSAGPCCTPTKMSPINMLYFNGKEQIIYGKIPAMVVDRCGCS
Method in brief: as §1

[4] = test system: DBA/2 mdx model mice; assay: Subcutaneously administered peptide, improvement of muscle strength in DBA/2 mdx mice; assay type: in vivo, DBA/2N-mdx mice; settings: Fig. 5
Experimental: In this Example, the effect of the peptide Myostatin_99_v145 (SEQ ID NO: 30) was evaluated on improvement of muscle strength in DMD model mice.
To twenty-week-old female DBA/2N-mdx mice (Central Institute for Experimental Medicine and Life Science), Myostatin_99_v145 or solvent control (PBS) was subcutaneously administered once a week for 4 weeks as shown in Table 12. As a Comparative Example, a single intravenous dose of anti-latent myostatin antibody (GYM329-BS) was administered.
Using a smart-type grip strength meter for rats and mice (MK-380V; Muromachi Kikai Co., Ltd.), forelimb and hindlimb grip strength measurements were performed on the day of completion of the acclimation period (grouping day), and on Days 7, 14, 21, and 26. The measurements were conducted with individual identification numbers blinded so that the examiner was unaware of the test conditions of the mice. The grip strength was measured seven times consecutively, and the average of five points, excluding the two points: the highest and lowest values, was used as individual data.

CCCCCCC[C@@H]1NC(=O)[C@H](Cc2ccccc2)N(C)C(=O)[C@H](CCCNC(=N)N)NC(=O)[C@H](Cc2ccc(C(=O)O)cc2)NC(=O)[C@H](Cc2cccc(OCC(=O)O)c2)NC(=O)[C@H](C)N(C)C(=O)[C@H]([C@@H](C)CC)NC(=O)[C@H](Cc2ccccc2)N(C)C(=O)[C@H](Cc2ccc(O)cc2)NC(=O)[C@H](Cc2c[nH]c3ccccc23)NC(=O)[C@H](C)NC(=O)CN(CCCC(=O)O)C(=O)CSC[C@H](C(=O)O)NC(=O)[C@H](Cc2ccccc2)N(C)C(=O)[C@H](C)N(C)C1=O [Myostatin_99_v145] ({CH2CO}-[Gly(N(CH2)3COOH)]AWY[NMeF]I[NMeA][Phe(3-OCH2COOH)][Phe(4-COOH)]R[NMeF][X1][NMeA][NMeF][dC]-OH; thioether N-15)
IC50 [1]: 414 nM
Selectivity [2]: 259
IC50 [3]: 1.6 nM
time-course change in grip strength ([4]; 1 and 3 mg/kg subcutaneous once a week for 4 weeks, vs. PBS Vehicle group): continuous increase in grip strength was observed in a dose-dependent manner
maximum effect (grip strength) compared with GYM329-BS ([4]; GYM329-BS 10 mg/kg single intravenous dose): higher than that of GYM329-BS
